According to patent US10865191B2, “Heterocyclic compounds useful as modulators of TNF alpha” (BRISTOL-MYERS SQUIBB COMPANY, priority 2015, dated 2020):

Target: TNFα (Homo sapiens, UniProt P01375)
Assay: TNF induced HEK-Blue assay (NF-kB-driven secreted alkaline phosphatase reporter)
Assay type: cell-based
Conditions: TNF induced HEK-Blue assay IC50 value, TNFα 0.5 ng/mL, HEK-Blue-CD40L cells, 18 h
In short: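 HEK-Blue-CD40L cells (NF-kB-driven SEAP reporter), 20,000/well, added after 30 min pre-incubation of compound (0.004–25 μM final) with TNFα 0.5 ng/mL final at 37 °C; 18 h incubation. SEAP read with QUANTI-Blue at 620 nm; IC50 from 4-parameter logistic fit, normalized to unstimulated and stimulated DMSO controls.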

Chain of TNFα (P01375 77-233 limits assumed): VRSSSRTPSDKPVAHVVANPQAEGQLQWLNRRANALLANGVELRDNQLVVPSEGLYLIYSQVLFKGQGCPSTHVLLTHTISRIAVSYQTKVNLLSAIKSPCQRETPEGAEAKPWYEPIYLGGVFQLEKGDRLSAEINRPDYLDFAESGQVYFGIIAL

IC50	Structure (SMILES)
< 1 µM	CC(C)C(Nc1c(Cl)cnc2ccc(-c3cnc(C(C)(C)O)nc3)cc12)c1ccccc1F (stereo not shown) [Example 189, 2-(5-(3-chloro-4-((1-(2-fluorophenyl)-2-methylpropyl)amino)quinolin-6-yl)pyrimidin-2-yl)propan-2-ol]
< 1 µM	C[C@@H](Nc1c(Cl)cnc2ccc(-c3cnc(C(C)(C)O)nc3)cc12)c1ccccc1F [Example 217, (R)-2-(5-(3-chloro-4-(1-(2-fluorophenyl)ethylamino)quinolin-6-yl)pyrimidin-2-yl)propan-2-ol]
< 1 µM	C[C@@H](Nc1c(Cl)cnc2ccc(-c3ccc(S(C)(=O)=O)nc3)cc12)c1ccccc1F [Example 221, (R)-3-chloro-N-(1-(2-fluorophenyl)ethyl)-6-(6-(methylsulfonyl)pyridin-3-yl)quinolin-4-amine]
< 1 µM	CCOc1ncc(-c2ccc3ncc(Cl)c(N[C@H](C)c4ccccc4F)c3c2)cn1 [Example 222, (R)-3-chloro-6-(2-ethoxypyrimidin-5-yl)-N-(1-(2-fluorophenyl)ethyl)quinolin-4-amine]
< 1 µM	C[C@@H](Nc1c(Cl)cnc2ccc(-c3cnc(N4CCS(=O)(=O)CC4)nc3)cc12)c1ccccc1F [Example 225, (R)-4-(5-(3-chloro-4-((1-(2-fluorophenyl)ethyl)amino)quinolin-6-yl)pyrimidin-2-yl)thiomorpholine 1,1-dioxide]
< 1 µM	C[C@@H](Nc1c(Cl)cnc2ccc(-c3ccc(C(C)(C)O)cc3)cc12)c1ccccc1F [Example 228, (R)-2-(4-(3-chloro-4-((1-(2-fluorophenyl)ethyl)amino)quinolin-6-yl)phenyl)propan-2-ol]
10 to 25 µM	CC(Nc1c(Cl)cnc2cc(F)c(-c3cnc(C(C)(C)O)nc3)cc12)c1ccccc1F (stereo not shown) [Example 248, 2-(5-(3-chloro-7-fluoro-4-((1-(2-fluorophenyl)ethyl)amino)quinolin-6-yl)pyrimidin-2-yl)propan-2-ol]
1 to 10 µM	CC(Nc1c(Cl)cnc2cc(F)c(-c3cnc(C(C)(C)O)nc3)cc12)c1ccccc1F (stereo not shown) [Example 249, 2-(5-(3-chloro-7-fluoro-4-((1-(2-fluorophenyl)ethyl)amino)quinolin-6-yl)pyrimidin-2-yl)propan-2-ol]
1 to 10 µM	CC(Nc1c(Cl)cnc2cc(F)c(-c3cnc(C(C)(C)O)nc3)cc12)c1ccccc1F (stereo not shown) [Example 250, 2-(5-(3-chloro-7-fluoro-4-((1-(2-fluorophenyl)ethyl)amino)quinolin-6-yl)pyrimidin-2-yl)propan-2-ol]
< 1 µM	CC(Nc1c(Cl)cnc2cc(F)c(-c3cnc(C(C)(C)O)nc3)cc12)c1ccccc1F (stereo not shown) [Example 252, 2-(5-(3-chloro-7-fluoro-4-((1-(2-fluorophenyl)ethyl)amino)quinolin-6-yl)pyrimidin-2-yl)propan-2-ol]

Same assay, conditions: TNFα 0.5 ng/mL, HEK-Blue-CD40L cells, 18 h; read-out: TNF induced HEK-Blue assay IC50 value

Structure (SMILES)	IC50
Cc1ccc(C)c(Nc2c(C)c(O)nc3ccc(-c4cnc(C(C)(C)O)nc4)cc23)c1 [Example 181, 4-((2,5-dimethylphenyl)amino)-6-(2-(2-hydroxypropan-2-yl)pyrimidin-5-yl)-3-methylquinolin-2-ol]	10 to 25 µM
CC(C)(O)c1ncc(-c2ccc3ncc(Cl)c(NC(C)(C)c4cccc(C(F)(F)F)c4)c3c2)cn1 [Example 182, 2-(5-(3-chloro-4-((2-(3-(trifluoromethyl)phenyl)propan-2-yl)amino)quinolin-6-yl)pyrimidin-2-yl)propan-2-ol]	10 to 25 µM
CC(C)(O)c1ncc(-c2ccc3ncc(Cl)c(NC(C)(C)c4ccc(C(F)(F)F)cc4)c3c2)cn1 [Example 185, 2-(5-(3-chloro-4-((2-(4-(trifluoromethyl)phenyl)propan-2-yl)amino)quinolin-6-yl)pyrimidin-2-yl)propan-2-ol]	10 to 25 µM
CNC(=O)c1ccc(-c2ccc3nc(C)c(F)c(Nc4cc(C)ccc4C)c3c2)cn1 [Example 186, 5-(4-((2,5-dimethylphenyl)amino)-3-fluoro-2-methylquinolin-6-yl)-N-methylpicolinamide]	10 to 25 µM
C[C@@H](Nc1c(Cl)cnc2ccc(-c3ccc(CO)cc3)cc12)c1ccccc1F [Example 220, (R)-(4-(3-chloro-4-((1-(2-fluorophenyl)ethyl)amino)quinolin-6-yl)phenyl)methanol]	10 to 25 µM
CCc1ncc(-c2ccc3ncc(Cl)c(N[C@H](C)c4ccccc4F)c3c2)cn1 [Example 223, (R)-3-chloro-6-(2-ethylpyrimidin-5-yl)-N-(1-(2-fluorophenyl)ethyl) quinolin-4-amine]	10 to 25 µM
CC(Nc1c(Cl)cnc2cc(F)c(-c3cnc(C#N)nc3)cc12)c1ccccc1F (stereo not shown) [Example 255, 5-(3-chloro-7-fluoro-4-((1-(2-fluorophenyl)ethyl)amino)quinolin-6-yl)pyrimidine-2-carbonitrile]	1 to 10 µM

Now from value to compound:

IC50	Structure (SMILES)
< 1 µM	Cc1ccc(C)c(Nc2c(F)c(C)nc3ccc(-c4cnc(C(C)(C)O)nc4)cc23)c1 [Example 183, 2-(5-(4-((2,5-dimethylphenyl)amino)-3-fluoro-2-methylquinolin-6-yl)pyrimidin-2-yl)propan-2-ol]
< 1 µM	Cc1ccc(C)c(Nc2c(C)c(C)nc3ccc(-c4cnc(C(C)(C)O)nc4)cc23)c1 [Example 184, 2-(5-(4-((2,5-dimethylphenyl)amino)-2,3-dimethylquinolin-6-yl)pyrimidin-2-yl)propan-2-ol]
< 1 µM	Cc1ccc(C)c(Nc2c(F)c(C)nc3ccc(-c4cnc(N5CCN(CC(=O)O)CC5)nc4)cc23)c1 [Example 187, 2-(4-(5-(4-((2,5-dimethylphenyl)amino)-3-fluoro-2-methylquinolin-6-yl)pyrimidin-2-yl)piperazin-1-yl)acetic acid]
< 1 µM	C=Cc1ccc(F)c([C@@H](C)Nc2c(Cl)cnc3cc(F)c(-c4cnc(C(C)(C)O)nc4)nc23)c1 [Example 188, (R)-2-(5-(7-chloro-3-fluoro-8-((1-(2-fluoro-5-vinylphenyl)ethyl)amino)-1,5-naphthyridin-2-yl)pyrimidin-2-yl)propan-2-ol]
< 1 µM	C[C@@H](Nc1c(Cl)cnc2cc(F)c(-c3cnc(C(C)(C)O)nc3)nc12)c1ccccc1 [Example 193, (R)-2-(5-(7-chloro-3-fluoro-8-((1-phenylethyl)amino)-1,5-naphthyridin-2-yl)pyrimidin-2-yl)propan-2-ol]
< 1 µM	CC(C)(O)c1ncc(-c2nc3c(N[C@@H](c4ccccc4F)C(F)F)c(Cl)cnc3cc2F)cn1 [Example 207, (S)-2-(5-(7-chloro-8-((2,2-difluoro-1-(2-fluorophenyl)ethyl)amino)-3-fluoro-1,5-naphthyridin-2-yl)pyrimidin-2-yl)propan-2-ol]
< 1 µM	C[C@H](Nc1c(Cl)cnc2cc(F)c(-c3cnc(C(C)(C)O)nc3)nc12)c1ccccc1 [Example 208, (S)-2-(5-(7-chloro-3-fluoro-8-((1-phenylethyl)amino)-1,5-naphthyridin-2-yl)pyrimidin-2-yl)propan-2-ol]
< 1 µM	Cc1nc2cc(F)c(-c3cnc(C(C)(C)O)nc3)nc2c(N[C@H](C)c2ccccc2)c1Cl [Example 213, (R)-2-(5-(7-chloro-3-fluoro-6-methyl-8-((1-phenylethyl)amino)-1,5-naphthyridin-2-yl)pyrimidin-2-yl)propan-2-ol]
< 1 µM	C=Cc1ccc(F)c([C@@H](Nc2c(Cl)cnc3cc(F)c(-c4cnc(C(C)(C)O)nc4)nc23)C(F)F)c1 [Example 215, (R)-2-(5-(7-chloro-8-((2,2-difluoro-1-(2-fluoro-5-vinylphenyl)ethyl)amino)-3-fluoro-1,5-naphthyridin-2-yl)pyrimidin-2-yl)propan-2-ol]
< 1 µM	C[C@@H](Nc1c(Cl)cnc2ccc(-c3cnc(N4CCOCC4)nc3)cc12)c1ccccc1F [Example 219, (R)-3-chloro-N-(1-(2-fluorophenyl)ethyl)-6-(2-morpholinopyrimidin-5-yl)quinolin-4-amine]
< 1 µM	COC(=O)CN1CCN(c2ncc(-c3ccc4ncc(Cl)c(N[C@H](C)c5ccccc5F)c4c3)cn2)CC1 [Example 224]
< 1 µM	C[C@@H](Nc1c(Cl)cnc2ccc(-c3cnc(N4CCNC(=O)C4)nc3)cc12)c1ccccc1F [Example 226, (R)-4-(5-(3-chloro-4-((1-(2-fluorophenyl)ethyl)amino)quinolin-6-yl)pyrimidin-2-yl)piperazin-2-one]
< 1 µM	C[C@@H](Nc1c(Cl)cnc2ccc(-c3cnc(C4(O)COC4)nc3)cc12)c1ccccc1F [Example 227, (R)-3-(5-(3-chloro-4-((1-(2-fluorophenyl)ethyl)amino)quinolin-6-yl)pyrimidin-2-yl)oxetan-3-ol]
< 1 µM	C[C@@H](Nc1c(Cl)cnc2ccc(-c3cnc(N4CCN(CC#N)CC4)nc3)cc12)c1ccccc1F [Example 233, (R)-2-(4-(5-(3-chloro-4-((1-(2-fluorophenyl)ethyl)amino)quinolin-6-yl)pyrimidin-2-yl)piperazin-1-yl)acetonitrile]
< 1 µM	C[C@@H](Nc1c(Cl)cnc2ccc(-c3cnc(N4CCN(Cc5nn[nH]n5)CC4)nc3)cc12)c1ccccc1F [Example 237, (R)-6-(2-(4-((2H-tetrazol-5-yl)methyl)piperazin-1-yl)pyrimidin-5-yl)-3-chloro-N-(1-(2-fluorophenyl)ethyl)quinolin-4-amine]
< 1 µM	Cc1cnc2ccc(-c3cnc(C(C)(C)O)nc3)cc2c1N[C@H](C)c1ccccc1F [Example 240, (R)-2-(5-(4-((1-(2-fluorophenyl)ethyl)amino)-3-methylquinolin-6-yl)pyrimidin-2-yl)propan-2-ol]
< 1 µM	CC(Nc1c(Cl)cnc2cc(F)c(-c3cnc(C(C)(O)CO)nc3)cc12)c1ccccc1F (stereo not shown) [Example 254, 2-(5-(3-chloro-7-fluoro-4-((1-(2-fluorophenyl)ethyl)amino)quinolin-6-yl)pyrimidin-2-yl)propane-1,2-diol]
